Data on one molecule can be found in patent US20210379197A1, “DUAL-TARGETING LIPID-POLYMER HYBRID NANOPARTICLES” (IUCF-HYU (INDUSTRY-UNIVERSITY COOPERATION FOUNDATION …, priority 2020, published 2021).

The test system of test [1] is HO1. In words: Daunorubicin-responsive HO1 upregulation, THP-1 (Western blot). The format is cell-based, human. To be noted: THP-1, various concentrations of DNR, 24 h (FIG. 9a). On the procedure:
(§1) THP-1 and U937 cells (4×10^5 cells mL^−1) were seeded and cultured in complete medium with various concentrations of DNR for 24 h. The cells were lysed using RIPA buffer and total protein was used for immunodetection by using anti-human HO1 and kactin antibodies (Cell Signaling Technology, Danvers, Mass., USA).
A general note: Immunoblotting shows a protein as a band on a membrane.

Test [2] has as its system HO1. In words: Daunorubicin-responsive HO1 upregulation, U937 (Western blot). To be noted: U937, various concentrations of DNR, 24 h (FIG. 9a). It counts as cell-based, human. On the procedure: as §1

The structures appear in SMILES notation.

As to `COc1cccc2c1C(=O)c1c(O)c3c(c(O)c1C2=O)C[C@@](O)(C(C)=O)C[C@@H]3O[C@H]1C[C@H](N)[C@H](O)[C@H](C)O1` [DNR, daunorubicin], the HO1 expression entry in the test on HO1 [1] and in the test with HO1 [2] was “overexpressed” in each case.
